Columns and labels:
[1] = test system: Escherichia coli expressing NDM-1 (CLB30005, CLB30016); format: cell-based; conditions: with imipenem 1 μg/ml; 95% inhibition of bacterial growth
How it was run: (§1)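 Clinical strains grown overnight on blood agar, then diluted 1:100 in 1.1× CAMHB and exposed to test compound with imipenem at 1 μg/ml. Incubation was 22–24 h at 35° C; growth was read by absorbance to find the compound concentration restoring imipenem susceptibility.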

[2] = test system: Serratia marcescens expressing IMP-1 (CL5741); format: cell-based; conditions: with imipenem 1 μg/ml; 95% inhibition of bacterial growth
How it was run: as §1

[3] = test system: Klebsiella pneumoniae expressing VIM-1 (IHMA599644); format: cell-based; conditions: with imipenem 1 μg/ml; 95% inhibition of bacterial growth
How it was run: as §1

IMP-1 = IMP-1 (Serratia marcescens, UniProt P52699); test: biochemical; format: biochemical; conditions: CCF2-FA substrate, 2 hours at 25° C; read-out: IMP-1 IC50
IMP-1, sequence (P52699 whole entry, looked up, species assumed): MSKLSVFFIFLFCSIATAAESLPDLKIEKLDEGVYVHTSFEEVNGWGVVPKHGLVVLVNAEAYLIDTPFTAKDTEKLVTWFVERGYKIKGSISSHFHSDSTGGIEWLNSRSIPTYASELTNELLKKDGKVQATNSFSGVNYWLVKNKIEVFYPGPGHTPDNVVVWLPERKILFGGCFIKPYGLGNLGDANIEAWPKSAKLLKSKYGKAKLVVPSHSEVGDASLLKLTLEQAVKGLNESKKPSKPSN
How it was run: (§2)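 Test compound, enzyme and the FRET cephalosporin substrate CCF2-FA are incubated together for 2 hours at 25° C. Cleavage is followed by fluorescence, and IC50 values are derived from semi-logarithmic inhibition curves fitted with a 4-parameter model.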

NDM-1 = NDM-1 (Klebsiella pneumoniae, UniProt C7C422); test: biochemical; format: biochemical; conditions: CCF2-FA substrate, 2 hours at 25° C; read-out: NDM-1 IC50
NDM-1, sequence (C7C422 whole entry, looked up, species assumed): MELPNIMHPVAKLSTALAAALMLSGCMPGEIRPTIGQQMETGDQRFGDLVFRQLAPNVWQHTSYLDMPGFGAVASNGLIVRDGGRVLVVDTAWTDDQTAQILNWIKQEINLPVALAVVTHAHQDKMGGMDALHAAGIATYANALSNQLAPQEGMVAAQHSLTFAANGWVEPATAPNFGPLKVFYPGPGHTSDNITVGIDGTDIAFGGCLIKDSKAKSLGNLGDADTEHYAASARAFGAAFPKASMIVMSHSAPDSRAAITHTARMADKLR
How it was run: as §2

[4] = test system: P. aeruginosa expressing IMP-1, efflux+ (MB9798); format: cell-based, Pseudomonas aeruginosa; conditions: for P. aeruginosa expressing IMP-1, efflux+ (MB9798) MITC95: imipenem at 2 μg/mL, in the presence of a class A, C, D serine β-lactamase inhibitor closely related to relebactam; for Efflux ratio: ratio MITC95 PA_9798/MITC95 PA_9799
Text: (§3) The strain background is Pseudomonas aeruginosa PAO1.

VIM-1 = VIM-1 (Pseudomonas aeruginosa (strain ATCC 15692 / DSM 22644 / CIP 104116 / JCM 14847 / LMG 12228 / 1C / PRS 101 / PAO1), UniProt A0A0F7KYQ8); test: biochemical; conditions: CCF2-FA substrate, 2 hours at 25° C
How it was run: as §2

[5] = test system: P. aeruginosa expressing IMP-1, efflux− (MB9799); test: Efflux: concentration of MBL inhibitor which restores susceptibility to imipenem; format: cell-based, Pseudomonas aeruginosa; conditions: imipenem at 2 μg/mL, in the presence of a class A, C, D serine β-lactamase inhibitor closely related to relebactam
Text: as §3

| SMILES | Escherichia coli expressing NDM-1 (CLB30016) MITC95 [1] | Serratia marcescens expressing IMP-1 (CL5741) MITC95 [2] | Klebsiella pneumoniae expressing VIM-1 (IHMA599644) MITC95 [3] | IC50 (IMP-1) | IC50 (NDM-1) | P. aeruginosa expressing IMP-1, efflux+ (MB9798) MITC95 [4] | Efflux ratio [4] | IC50 (VIM-1) | P. aeruginosa expressing IMP-1, efflux− (MB9799) MITC95 [5] |
| --- | --- | --- | --- | --- | --- | --- | --- | --- | --- |
| Nc1nc2cccc(-c3ccc(S(=O)(=O)C4CCN(CCO)CC4)c(S(N)(=O)=O)c3-c3nn[nH]n3)c2[nH]1 [Example 47, 3-(2-amino-3H-benzo[d]imidazol-4-yl)-6-(1-(2-hydroxyethyl)piperidin-4-ylsulfonyl)-2-(2H-tetrazol-5-yl)benzenesulfonamide] | 1.563 µM | 3.125 µM | 3.125 µM | 0.846 nM | 0.214 nM | 6.25 µM | 4.00 | 0.361 nM | 1.563 µM |
| NCCN1CCC(S(=O)(=O)c2ccc(-c3cccc4nc(N)[nH]c34)c(-c3nn[nH]n3)c2S(N)(=O)=O)CC1 [Example 48, 3-(2-amino-3H-benzo[d]imidazol-4-yl)-6-(1-(2-aminoethyl)piperidin-4-ylsulfonyl)-2-(2H-tetrazol-5-yl)benzenesulfonamide] | 1.563 µM | 3.125 µM | 3.125 µM | 2.3 nM | 0.392 nM | 3.125 µM | 2.00 | 0.404 nM | 1.563 µM |
| NC(=O)N1CCC(S(=O)(=O)c2ccc(-c3cccc4nc(N)[nH]c34)c(-c3nn[nH]n3)c2S(N)(=O)=O)CC1 [Example 49, 4-(4-(2-amino-3H-benzo[d]imidazol-4-yl)-2-sulfamoyl-3-(2H-tetrazol-5-yl)phenylsulfonyl)piperidine-1-carboxamide] | 6.25 µM | 6.25 µM | 6.25 µM | 1.37 nM | 0.278 nM | 12.5 µM | 4.00 | 0.308 nM | 3.125 µM |
| NC(=O)CN1CC(S(=O)(=O)c2ccc(-c3cccc4[nH]c(N)nc34)c(-c3nn[nH]n3)c2S(N)(=O)=O)C1 [Example 50, 2-(3-(4-(2-amino-1H-benzo[d]imidazol-4-yl)-2-sulfamoyl-3-(2H-tetrazol-5-yl)phenylsulfonyl)azetidin-1-yl)acetamide] | 3.125 µM | 3.125 µM | 6.25 µM | 1.44 nM | 0.242 nM | 3.125 µM | 1.00 | 0.585 nM | 3.125 µM |
| NCCN1CC(S(=O)(=O)c2ccc(-c3cccc4[nH]c(N)nc34)c(-c3nn[nH]n3)c2S(N)(=O)=O)C1 [Example 51, 3-(2-amino-1H-benzo[d]imidazol-4-yl)-6-(1-(2-aminoethyl)azetidin-3-ylsulfonyl)-2-(2H-tetrazol-5-yl)benzenesulfonamide] | 0.3906 µM | 0.7813 µM | 1.563 µM | 1.31 nM | 0.145 nM | 0.7813 µM | 1.00 | 0.426 nM | 0.7813 µM |
| CN1CC(S(=O)(=O)c2ccc(-c3cccc4[nH]c(N)nc34)c(-c3nn[nH]n3)c2S(N)(=O)=O)C1 [Example 52, 3-(2-amino-1H-benzo[d]imidazol-4-yl)-6-(1-methylazetidin-3-ylsulfonyl)-2-(2H-tetrazol-5-yl)benzenesulfonamide] | 0.3906 µM | 1.563 µM | 3.125 µM | 1.33 nM | 0.222 nM | 6.25 µM | 4.00 | 0.628 nM | 1.563 µM |
| Nc1nc2c(-c3ccc(S(=O)(=O)C4CN(CCO)C4)c(S(N)(=O)=O)c3-c3nn[nH]n3)cccc2[nH]1 [Example 53, 3-(2-amino-1H-benzo[d]imidazol-4-yl)-6-(1-(2-hydroxyethyl)azetidin-3-ylsulfonyl)-2-(2H-tetrazol-5-yl)benzenesulfonamide] | 12.5 µM | 6.25 µM | 12.5 µM | 6.12 nM | 0.458 nM | 12.5 µM | 2.00 | 1.54 nM | 6.25 µM |
| CC(=O)N1CC(S(=O)(=O)c2ccc(-c3cccc4nc(N)[nH]c34)c(-c3nn[nH]n3)c2S(N)(=O)=O)C1 [Example 54, 6-(1-acetylazetidin-3-ylsulfonyl)-3-(2-amino-3H-benzo[d]imidazol-4-yl)-2-(2H-tetrazol-5-yl)benzenesulfonamide] | 6.25 µM | 6.25 µM | 12.5 µM | 2.38 nM | 0.178 nM | 50 µM | 16.00 | 0.435 nM | 3.125 µM |
| CS(=O)(=O)N1CC(S(=O)(=O)c2ccc(-c3cccc4[nH]c(N)nc34)c(-c3nn[nH]n3)c2S(N)(=O)=O)C1 [Example 55, 3-(2-amino-1H-benzo[d]imidazol-4-yl)-6-(1-(methylsulfonyl)azetidin-3-ylsulfonyl)-2-(2H-tetrazol-5-yl)benzenesulfonamide] | 3.125 µM | 3.125 µM | 6.25 µM | 1.42 nM | 0.0818 nM | 50 µM | 31.99 | 0.312 nM | 1.563 µM |
| NC(=O)N1CC(S(=O)(=O)c2ccc(-c3cccc4[nH]c(N)nc34)c(-c3nn[nH]n3)c2S(N)(=O)=O)C1 [Example 56, 3-(4-(2-amino-1H-benzo[d]imidazol-4-yl)-2-sulfamoyl-3-(2H-tetrazol-5-yl)phenylsulfonyl)azetidine-1-carboxamide] | 6.25 µM | 3.125 µM | 6.25 µM | 2.82 nM | 0.18 nM | 3.125 µM | 1.00 | 0.35 nM | 3.125 µM |
| CCOC(=O)N1CC(S(=O)(=O)c2ccc(-c3cccc4[nH]c(N)nc34)c(-c3nn[nH]n3)c2S(N)(=O)=O)C1 [Example 57, ethyl 3-(4-(2-amino-1H-benzo[d]imidazol-4-yl)-2-sulfamoyl-3-(2H-tetrazol-5-yl)phenylsulfonyl)azetidine-1-carboxylate] | 6.25 µM | 6.25 µM | 12.5 µM | 1.98 nM | 0.264 nM | 200 µM | 64.00 | 0.446 nM | 3.125 µM |
| NS(=O)(=O)c1c(S(=O)(=O)C2CNC2)ccc(-c2cccn3ccnc23)c1-c1nnn[nH]1 [Example 58, 6-(Azetidin-3-ylsulfonyl)-3-(imidazo[1,2-a]pyridin-8-yl)-2-(1H-tetrazol-5-yl)benzenesulfonamide] | 0.7813 µM | 1.563 µM | 3.125 µM | 0.597 nM | 0.378 nM | 1.563 µM | 1.00 | 0.342 nM | 1.563 µM |
| NC(=O)c1cn2cccc(-c3ccc(S(=O)(=O)C4CNC4)c(S(N)(=O)=O)c3-c3nnn[nH]3)c2n1 [Example 59, 8-(4-(azetidin-3-ylsulfonyl)-3-sulfamoyl-2-(1H-tetrazol-5-yl)phenyl)imidazo[1,2-a]pyridine-2-carboxamide] | 3.125 µM | 3.125 µM | 3.125 µM | 1.44 nM | 0.131 nM | 3.125 µM | 2.00 | 0.187 nM | 1.563 µM |
